Measurements as given in patent US6410792B1, “Amide derivatives and methods for using the same as selective neuropeptide Y receptor antagonists” (Bayer Corporation, priority 1997, dated 2002).

Key:
Human NPY1 receptor = biological target: T1, Human NPY1 receptor (Homo sapiens, UniProt P25929); test: Human NPY1 receptor binding assay ([125I]PYY, SK-N-MC cells); conditions: [125I]PYY, SK-N-MC cells; read-out: hNPYI IC50
T1 construct: host or cells: SK-N-MC cells
T1 sequence (P25929 1-384): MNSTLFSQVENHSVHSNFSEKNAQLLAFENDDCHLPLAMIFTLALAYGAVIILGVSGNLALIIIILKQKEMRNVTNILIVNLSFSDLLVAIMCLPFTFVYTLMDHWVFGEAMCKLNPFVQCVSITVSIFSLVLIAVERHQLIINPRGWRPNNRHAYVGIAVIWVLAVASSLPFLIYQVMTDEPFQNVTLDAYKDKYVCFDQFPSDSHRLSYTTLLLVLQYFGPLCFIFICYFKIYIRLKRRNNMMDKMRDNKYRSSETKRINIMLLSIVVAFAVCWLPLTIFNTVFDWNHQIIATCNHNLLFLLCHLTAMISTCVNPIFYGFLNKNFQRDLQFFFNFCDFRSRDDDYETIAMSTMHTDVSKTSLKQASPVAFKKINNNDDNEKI
Outline: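 Confluent SK-N-MC cells preincubated 30 min at room temperature in serum-free DMEM/25 mM HEPES pH 7.3 with BSA, bacitracin and PMSF, then incubated 3 h at room temperature with compound and ~50 pM [125I]PYY. Nonspecific binding defined with 1 μM NPY; bound radioactivity counted after Triton X-100 lysis.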

Human NPY5 receptor = biological target: T2, Human NPY5 receptor (Homo sapiens, UniProt Q15761); test: Human NPY5 receptor binding assay ([125I]PYY, membrane protein); conditions: [125I]PYY, read-out: hNPY5 IC50
T2 sequence (Q15761 1-445): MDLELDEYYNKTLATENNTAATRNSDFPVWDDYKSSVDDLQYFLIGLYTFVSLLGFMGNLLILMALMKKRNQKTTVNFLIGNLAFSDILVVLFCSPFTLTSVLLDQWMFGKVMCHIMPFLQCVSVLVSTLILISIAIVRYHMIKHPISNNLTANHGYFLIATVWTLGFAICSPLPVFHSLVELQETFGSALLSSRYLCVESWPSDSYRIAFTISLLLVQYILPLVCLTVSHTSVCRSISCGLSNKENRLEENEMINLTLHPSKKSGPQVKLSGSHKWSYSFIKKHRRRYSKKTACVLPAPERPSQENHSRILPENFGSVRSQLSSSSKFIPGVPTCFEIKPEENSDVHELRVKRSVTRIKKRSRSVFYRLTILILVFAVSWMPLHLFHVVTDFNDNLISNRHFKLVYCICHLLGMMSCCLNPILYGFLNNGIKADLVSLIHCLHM
Outline: (§1)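 Bound [125I]PYY is measured by gamma counting or liquid scintillation after vacuum filtration and ice-cold washes. Before that, membranes, 75-100 pM tracer and compound are incubated 2 hours at room temperature, with nonspecific binding defined by 1 μM PYY.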

human Y4/PP1 receptor = human Y4/PP1 receptor (Homo sapiens, UniProt P50391); test: Human Y4/PP1 receptor binding assay ([125I]human PP, membrane protein); conditions: [125I]human PP, membrane protein; read-out: hNPY4 IC50
Sequence of human Y4/PP1 receptor (P50391 whole entry): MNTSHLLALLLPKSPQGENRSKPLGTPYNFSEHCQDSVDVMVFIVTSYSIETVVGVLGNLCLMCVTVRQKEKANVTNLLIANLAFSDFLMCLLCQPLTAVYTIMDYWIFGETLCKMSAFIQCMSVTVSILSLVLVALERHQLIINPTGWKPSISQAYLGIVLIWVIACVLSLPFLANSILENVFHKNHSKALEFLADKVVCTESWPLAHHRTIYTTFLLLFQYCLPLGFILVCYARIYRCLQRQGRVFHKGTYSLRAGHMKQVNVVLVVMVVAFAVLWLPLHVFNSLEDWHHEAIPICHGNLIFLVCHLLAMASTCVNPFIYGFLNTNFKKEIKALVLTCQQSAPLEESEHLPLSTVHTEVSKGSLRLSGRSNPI
Outline: (§2)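 Filtration binding with membrane protein and drug dilution, 2 h at room temperature with mixing, radioactivity counted by gamma or scintillation. Y2: 25 pM [125I]PYY in Krebs-Ringer bicarbonate pH 7.4 with 0.01% BSA, nonspecific by 1 μM NPY. Y4/PP1: 50 pM [125I]hPP in HEPES-buffered saline pH 7.4 with protease inhibitors and 0.3% BSA, nonspecific by 1 μM hPP.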

Rat NPY5 receptor = biological target: T3, Rat NPY5 receptor (Rattus norvegicus, UniProt Q63634); test: Rat NPY5 receptor binding assay ([125I]PYY, membrane protein); conditions: [125I]PYY, read-out: rNPY5 IC50
T3 sequence (Q63634 1-445): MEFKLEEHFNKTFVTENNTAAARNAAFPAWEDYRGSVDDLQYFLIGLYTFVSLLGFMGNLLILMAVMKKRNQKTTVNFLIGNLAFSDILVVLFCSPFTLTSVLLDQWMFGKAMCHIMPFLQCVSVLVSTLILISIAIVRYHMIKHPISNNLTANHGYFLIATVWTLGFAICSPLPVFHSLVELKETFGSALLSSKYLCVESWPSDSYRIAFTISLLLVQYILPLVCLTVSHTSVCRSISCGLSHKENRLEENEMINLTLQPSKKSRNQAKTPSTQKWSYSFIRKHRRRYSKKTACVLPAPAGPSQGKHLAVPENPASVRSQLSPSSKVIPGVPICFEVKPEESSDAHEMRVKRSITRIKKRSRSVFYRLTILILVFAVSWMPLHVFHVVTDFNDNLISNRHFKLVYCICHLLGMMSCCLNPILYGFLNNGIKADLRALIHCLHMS
Outline: as §1

Y2 receptor = biological target: T4, Y2 receptor (Homo sapiens, UniProt P49146); test: Y2 receptor binding assay ([125I]PYY, membrane protein); conditions: [125I]PYY, membrane protein; read-out: hNPY2 IC50
T4 sequence (P49146 1-381): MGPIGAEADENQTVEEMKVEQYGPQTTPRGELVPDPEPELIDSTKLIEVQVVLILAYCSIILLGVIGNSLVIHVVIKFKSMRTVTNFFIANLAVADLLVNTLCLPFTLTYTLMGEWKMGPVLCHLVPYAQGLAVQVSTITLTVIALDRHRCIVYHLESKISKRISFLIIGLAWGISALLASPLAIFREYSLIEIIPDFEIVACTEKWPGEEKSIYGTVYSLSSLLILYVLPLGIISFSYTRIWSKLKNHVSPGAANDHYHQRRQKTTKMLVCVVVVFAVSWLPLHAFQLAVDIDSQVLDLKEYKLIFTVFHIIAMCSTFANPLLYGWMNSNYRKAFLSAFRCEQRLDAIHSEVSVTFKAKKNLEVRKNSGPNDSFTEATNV
Outline: as §2

## O=C(CN1CCCCC1)Nc1ccc(C2CCCCC2)cc1 [Compound 252, N-(4-Cyclohexyl-phenyl)-2-(piperidine)-acetamide]
Human NPY1 receptor
  IC50: > 5 µM
Human NPY5 receptor
  IC50: 0.94 µM
Human Y4/PP1 receptor
  IC50: > 5 µM
other
  melting point: 118 to 119 °C
Rat NPY5 receptor
  IC50: 0.63 µM
Y2 receptor
  IC50: > 5 µM

## O=C(CN1CCC(n2c(=O)[nH]c3ccccc32)CC1)Nc1ccc(Cc2ccccc2)cc1 [Compound 258, N-(4-Benzyl-phenyl)-2-[4-(2-oxo-2,3-dihydro-benzoimidazol-1-yl)-piperidin-1-yl]-acetamide]
Human NPY1 receptor
  IC50: > 5 µM
Human NPY5 receptor
  IC50: 0.1 µM
Human Y4/PP1 receptor
  IC50: > 5 µM
other
  melting point: 182 to 183 °C
Y2 receptor
  IC50: > 5 µM

## CC(C)OC(=O)c1ccc(NC(=O)CN2CCC(n3c(=O)[nH]c4ccccc43)CC2)cc1 [Compound 260]
Human NPY1 receptor
  IC50: > 5 µM
Human NPY5 receptor
  IC50: 0.014 µM
Human Y4/PP1 receptor
  IC50: > 5 µM
other
  melting point: 168 to 177 °C
Y2 receptor
  IC50: > 5 µM

## CCOC(=O)Cc1ccc(NC(=O)CN2CCC(n3c(=O)[nH]c4ccccc43)CC2)cc1 [Compound 261, (4-{2 [4-(2-Oxo-2,3-dihydro-benzoimidazol-1-yl)-piperidin-1-yl]-acetylamino}-phenyl)-acetic acid ethyl ester]
Human NPY1 receptor
  IC50: > 5 µM
Human NPY5 receptor
  IC50: 0.59 µM
Human Y4/PP1 receptor
  IC50: > 5 µM
other
  melting point: 164 to 165 °C
Y2 receptor
  IC50: > 5 µM

## O=C(CN1CCC(n2c(=O)[nH]c3ccccc32)CC1)Nc1ccc(C=Cc2ccccc2)cc1 [Compound 262, 2-[4-(2-Oxo-2,3-dihydro-benzoimidazol-1-yl)-piperidin-1-yl]-N-(4-styryl-phenyl)-acetamide]
Human NPY1 receptor
  IC50: > 5 µM
Human NPY5 receptor
  IC50: 0.79 µM
Human Y4/PP1 receptor
  IC50: > 5 µM
other
  melting point: 234 to 235 °C
Y2 receptor
  IC50: > 5 µM

## O=C(CN1CCC(n2c(=O)[nH]c3ccccc32)CC1)Nc1ccc2c(c1)-c1ccccc1C2=O [Compound 266, 2-[4-(2-Oxo-2,3-dihydro-benzoimidazol-1-yl)-piperidin-1-yl]-N-(9-oxo-9H-fluoren-3-yl)-acetamide]
Human NPY1 receptor
  IC50: > 5 µM
Human NPY5 receptor
  IC50: 0.0005 µM
Human Y4/PP1 receptor
  IC50: > 5 µM
other
  melting point: 176 °C
Rat NPY5 receptor
  IC50: 0.0004 µM
Y2 receptor
  IC50: > 5 µM

## O=C(CN1CCC(n2c(=O)[nH]c3ccccc32)CC1)Nc1cccc(C(=O)c2ccccc2)c1 [Compound 268, N-(3-Benzoyl-phenyl)-2-[4-(2-oxo-2,3-dihydro-benzoimidazol-1-yl)-piperidin-1-yl]-acetamide]
Human NPY1 receptor
  IC50: > 5 µM
Human NPY5 receptor
  IC50: 0.13 µM
Human Y4/PP1 receptor
  IC50: > 5 µM
other
  melting point: 134 to 135 °C
Rat NPY5 receptor
  IC50: 0.12 µM
Y2 receptor
  IC50: > 5 µM

## O=C(CN1CCC2(CC1)C(=O)NCN2c1ccccc1)Nc1ccc(C2CCCCC2)cc1 [Compound 269, N-(4-Cyclohexyl-phenyl)-2-(4-oxo-1-phenyl-1,3,8-triaza-spiro[4.5]dec-8-yl)-acetamide]
Human NPY1 receptor
  IC50: > 5 µM
Human NPY5 receptor
  IC50: 0.79 µM
Human Y4/PP1 receptor
  IC50: > 5 µM
other
  melting point: 117 to 118 °C
Y2 receptor
  IC50: > 5 µM

## CN(C(=O)CN1CCC(n2c(=O)[nH]c3ccccc32)CC1)c1ccc(C2CCCCC2)cc1 [Compound 270, N-(4-Cyclohexyl-phenyl)-N-methyl-2-[4-(2-oxo-2,3-dihydro-benzoimidazol-1-yl)-piperidin-1-yl]-acetamide]
Human NPY1 receptor
  IC50: > 5 µM
Human NPY5 receptor
  IC50: > 10 µM
Human Y4/PP1 receptor
  IC50: > 5 µM
other
  melting point: 250 to 253 °C
Rat NPY5 receptor
  IC50: > 10 µM
Y2 receptor
  IC50: > 5 µM

## O=C(CN1CCCCC1)Nc1ccc(-c2ccccc2)cc1 [Compound 271, N-Biphenyl-4-yl-2-piperidin-1-yl-acetamide]
Human NPY1 receptor
  IC50: > 5 µM
Human NPY5 receptor
  IC50: 5.4 µM
Human Y4/PP1 receptor
  IC50: > 5 µM
other
  melting point: 102 to 103 °C
Rat NPY5 receptor
  IC50: 2.9 µM
Y2 receptor
  IC50: > 5 µM

## O=C(CN1CCN(c2ccccc2)CC1)Nc1ccc(C2CCCCC2)cc1 [Compound 272, N-(4-Cyclohexyl-phenyl)-2-(4-phenyl-piperazin-1-yl)-acetamide]
Human NPY1 receptor
  IC50: > 5 µM
Human NPY5 receptor
  IC50: 0.117 µM
Human Y4/PP1 receptor
  IC50: > 5 µM
other
  melting point: 195 to 196 °C
Rat NPY5 receptor
  IC50: 0.21 µM
Y2 receptor
  IC50: > 5 µM

## O=C(CNC(c1ccccc1)c1ccccc1)Nc1ccc(C2CCCCC2)cc1 [Compound 273, 2-(Benzhydryl-amino)-N-(4-cyclohexyl-phenyl)-acetamide]
Human NPY1 receptor
  IC50: > 5 µM
Human NPY5 receptor
  IC50: 7 µM
Human Y4/PP1 receptor
  IC50: > 5 µM
other
  melting point: 132 to 133 °C
Rat NPY5 receptor
  IC50: 6.5 µM

## O=C(CN1CCC(NC(=O)Nc2ccccc2)CC1)Nc1ccc(C2CCCCC2)cc1 [Compound 274, N-(4-Cyclohexyl-phenyl)-2-[4-(3-phenyl-ureido)-piperidin-1-yl]-acetamide]
Human NPY1 receptor
  IC50: > 5 µM
Human NPY5 receptor
  IC50: 4.8 µM
Human Y4/PP1 receptor
  IC50: > 5 µM
other
  melting point: 222 to 223 °C
Rat NPY5 receptor
  IC50: 1.5 µM

## CC(C(=O)Nc1ccc(C2CCCCC2)cc1)N1CCC(n2c(=O)[nH]c3ccccc32)CC1 (stereo not shown) [Compound 278, N-(4-Cyclohexyl-phenyl)-2-[4-(2-oxo-2,3-dihydro-benzoimidazol-1-yl)-piperidin-1-yl]-propionamide]
Human NPY1 receptor
  IC50: > 5 µM
Human NPY5 receptor
  IC50: 0.028 µM
Human Y4/PP1 receptor
  IC50: > 5 µM
other
  melting point: 148 to 150 °C
Rat NPY5 receptor
  IC50: 0.012 µM
Y2 receptor
  IC50: > 5 µM

## CC(C(=O)Nc1ccc(C(C)(C)C)cc1)N1CCC(n2c(=O)[nH]c3ccccc32)CC1 (stereo not shown) [Compound 279]
Human NPY1 receptor
  IC50: > 5 µM
Human NPY5 receptor
  IC50: 0.13 µM
Human Y4/PP1 receptor
  IC50: > 5 µM
other
  melting point: 144 to 148 °C
Rat NPY5 receptor
  IC50: 0.068 µM
Y2 receptor
  IC50: > 5 µM

## CC(C)N(CCNC(=O)CN1CCC(n2c(=O)[nH]c3ccccc32)CC1)C(C)C [Compound 281, N-(2-Diisopropylamino-ethyl)-2-[4-(2-oxo-2,3-dihydro-benzoimidazol-1-yl)-piperidin-1-yl]-acetamide]
Human NPY1 receptor
  IC50: > 5 µM
Human NPY5 receptor
  IC50: > 10 µM
Human Y4/PP1 receptor
  IC50: > 5 µM
other
  melting point: 195 to 196 °C
Rat NPY5 receptor
  IC50: > 10 µM
Y2 receptor
  IC50: > 5 µM

## Cl.O=C(CN1CCC(C(=O)c2ccc(F)cc2)CC1)Nc1ccc(C2CCCCC2)cc1 [Compound 292, N-(4-Cyclohexyl-phenyl)-2-[4-(4-fluoro-benzoyl)-piperidin-1-yl]-acetamide; hydrochloride]
Human NPY5 receptor
  IC50: 0.11 µM
Human Y4/PP1 receptor
  IC50: > 5 µM
other
  melting point: 258 °C
Rat NPY5 receptor
  IC50: 0.084 µM
Y2 receptor
  IC50: > 5 µM
